Results published in ChEMBL document CHEMBL4609985, “Superior inhibition of influenza virus hemagglutinin-mediated fusion by indole-substituted spirothiazolidinones” (Bioorg Med Chem, 2020).

Tests used:
[1] = Inhibition of Influenza A virus H3N2 A/X-31 hemagglutinin 3 E572K mutant expressed in HeLa cells assessed as polykaryon formation preincubated for 15 mins and further incubated for 15 mins with acidic buffer containing compounds at pH 5.2 by giemsa staining based microscopic analysis; format: cell-based, Influenza A virus (A/X-31(H3N2))
[2] = Inhibition of Influenza A virus H3N2 A/X-31 hemagglutinin 3 D1122N expressed in HeLa cells assessed as polykaryon formation preincubated for 15 mins and further incubated for 15 mins with acidic buffer containing compounds at pH 5.6 by giemsa staining based microscopic analysis; format: cell-based, Influenza A virus (A/X-31(H3N2))

Compound	EC50 [1]	EC50 [2]
Cc1c(C(=O)NN2C(=O)C(C)SC23CCCC(C)C3)[nH]c2ccc(Cl)cc12 (centres undefined)	> 25 µM	> 25 µM
Cc1c(C(=O)NN2C(=O)C(C)SC23CCCCC3)[nH]c2ccc(Cl)cc12 (centres undefined)	> 25 µM	> 25 µM
Cc1c(C(=O)NN2C(=O)C(C)SC23CCC(C)CC3)[nH]c2ccc(Cl)cc12 (centres undefined)	≥ 13 µM	> 25 µM
CCOC(=O)c1c(CSc2ccccc2)n(C)c2cc(Br)c(O)c(CN(C)C)c12 [UMIFENOVIR]	> 200 µM	> 200 µM
CCC1CCC2(CC1)SC(C)C(=O)N2NC(=O)c1[nH]c2ccc(Cl)cc2c1C (centres undefined)	> 25 µM	≥ 21 µM
CC(C)(C)c1cc(O)ccc1O [E319]	12 µM	> 400 µM
Cc1nc2sccn2c1C(=O)NN1C(=O)C(C)SC12CCC(C)CC2 (centres undefined)	9 µM	> 25 µM
